Data published in patent publication US12673954B2 (BRISTOL-MYERS SQUIBB COMPANY, priority 2021, dated 2026).
Like-named read-outs stand apart in the source and are kept apart here.

What was measured:
[1] = test system: NF-κB pathway, THP1-Dual™ cells; assay: STING reporter assay in THP1-Dual cells, NF-κB pathway (SEAP, QUANTI-Blue); type: cell-based, human; details: THP1-Dual cells, 10% human plasma, 20 hours, SEAP, 100% activation = 100 μM cGAMP, read-out: NFkB (EC50 μM)
From the text: (§1) THP1-Dual™ cells were derived from the human THP-1 monocyte cell line by stable integration of two inducible reporter constructs. To this end, THP1-Dual™ cells allow the simultaneous study of the NF-κB pathway, by monitoring the activity of SEAP, and the IRF pathway by assessing the activity of a secreted luciferase (Lucia). Both reporter proteins are readily measurable in the cell culture supernatant when using QUANTI-Blue™, a SEAP detection reagent, and QUANTI-Luc™, a luciferase detection reagent.
(§2) THP1-Dual™ cells induce the activation of NF-κB in response to STING agonists. They also trigger the IRF pathway upon stimulation with STING agonists, such as cGAMP. Here, the THP-1-Dual cells were used to assess STING specific binders for function on the cellular level.
(§3) Serial dilutions of compounds in DMSO were added to low volume 384 well plates at 100 nl/well using an ECHO acoustic dispenser (Labcyte, model 550) to achieve final starting concentration of 100 μM in cell suspension. […] One column of the plate was reserved for treatment with cGAMP at 100 μM for 100% activation calculation and one column for no treatment (DMSO only) for baseline activation. Plates were then incubated in 37° C. incubator at 5% CO2 for 20 hours.
(§4) Plates were read on the Envision (Perkin Elmer) at 620 nm wavelength (OD620). In the luciferase assay, 5 μl of Quantiluc (Invivogen, Rep-qlc2) is added to white 384 well plates seeded with THP1 cells and read at 5 minutes on the Envision (Perkin Elmer) using a luminescence protocol (RLU). 100% activation was determined by value (RLU) of THP-1 Dual STING cells stimulated with 100 μM cGAMP (Invivogen, cat #TLRL-NACGA23-5).

[2] = test system: IRF pathway, THP1-Dual™ cells; assay: STING reporter assay in THP1-Dual cells, IRF pathway (Lucia luciferase, QUANTI-Luc); type: cell-based, human; details: THP1-Dual cells, 10% human plasma, 20 hours, Lucia luciferase, 100% activation = 100 μM cGAMP, read-out: IRF (EC50 μM)
From the text: as §1, §2, §3, §4

Row | SMILES | EC50 ([1]; Homo sapiens, THP1-Dual, 20 h) | EC50 ([2]; Homo sapiens, THP1-Dual, 20 h) | EC50 [1] | EC50 [2]
1 | Cc1cc(C(=O)O)c2oc(C(C)NC(=O)c3cnn4cccnc34)cc2c1 (racemic) [EXAMPLE 161, 5-Methyl-2-(1-(pyrazolo[1,5-a]pyrimidine-3-carboxamido)ethyl)benzofuran-7-carboxylic acid (racemic)] | 138 µM | 108 µM | – | –
2 | Cc1cc(C(=O)O)c2oc(C(C)NC(=O)c3cnn4cccnc34)cc2c1 (racemic) [EXAMPLE 186, 5-Methyl-2-(1-(pyrazolo[1,5-a]pyrimidine-3-carboxamido)ethyl)benzofuran-7-carboxylic acid] | – | – | > 100 µM | 84 µM
3 | CCC(C)OC(=O)c1cccc2cc(CN3CCc4ccncc4C3=O)oc12 (racemic) [EXAMPLE 208, Sec-butyl 2-((1-oxo-3,4-dihydro-2,7-naphthyridin-2(1H)-yl)methyl)benzofuran-7-carboxylate] | 31 µM | 33 µM | – | –
4 | CCOC(OC(=O)c1cccc2cc(CN3CCc4ccncc4C3=O)oc12)C(F)(F)F (racemic) [EXAMPLE 210, 1-Ethoxy-2,2,2-trifluoroethyl 2-((1-oxo-3,4-dihydro-2,7-naphthyridin-2(1H)-yl)methyl)benzofuran-7-carboxylate] | 25 µM | 30 µM | – | –
5 | CCOC(=O)OC(C)OC(=O)c1cc(Cl)cc2cc(CNC(=O)c3cnn4cccnc34)oc12 (racemic) [EXAMPLE 261, 1-((Ethoxycarbonyl)oxy)ethyl 5-chloro-2-((pyrazolo[1,5-a]pyrimidine-3-carboxamido)methyl)benzofuran-7-carboxylate] | 0.82 µM | 0.95 µM | – | –
6 | COc1cc(C(=O)OC(OC)C(F)(F)F)c2oc(CNC(=O)c3cnn4cccnc34)cc2c1 (racemic) [EXAMPLE 281, 2,2,2-Trifluoro-1-methoxyethyl 5-methoxy-2-((pyrazolo[1,5-a]pyrimidine-3-carboxamido)methyl)benzofuran-7-carboxylate] | 14 µM | 11 µM | – | –
7 | COC(=O)c1cc(C)cc2cc(C(C)NC(=O)c3cnn4cccnc34)oc12 (racemic) [Example 96, Methyl 5-methyl-2-(1-(pyrazolo[1,5-a]pyrimidine-3-carboxamido)ethyl)benzofuran-7-carboxylate (racemic)] | 2 µM | 1.7 µM | – | –
8 | COC(=O)c1cc(C)cc2c(Cl)c(C(C)NC(=O)c3cnn4cccnc34)oc12 (single isomer, unassigned) [EXAMPLE 120, Methyl-3-chloro-5-methyl-2-(1-(pyrazolo[1,5-a]pyrimidine-3-carboxamido)ethyl)benzofuran-7-carboxylate] | 3.2 µM | 2.7 µM | – | –
9 | CC(OC(=O)c1cccc2cc(CN3CCc4ccncc4C3=O)oc12)C(F)(F)F (single isomer, unassigned) [EXAMPLE 307, 1,1,1-Trifluoropropan-2-yl 2-((1-oxo-3,4-dihydro-2,7-naphthyridin-2(1H)-yl)methyl)benzo-furan-7-carboxylate] | – | – | 8.9 µM | 7.7 µM
10 | CC(OC(=O)c1cccc2cc(CN3CCc4ccncc4C3=O)oc12)C(F)(F)F (single isomer, unassigned) [EXAMPLE 308, 1,1,1-Trifluoropropan-2-yl 2-((1-oxo-3,4-dihydro-2,7-naphthyridin-2(1H)-yl)methyl)benzo-furan-7-carboxylate] | – | – | 30 µM | 25 µM
11 | CC(OC(=O)c1ccc(F)c2cc(CNC(=O)c3cnn4cccnc34)oc12)C(F)(F)F (single isomer, unassigned) [EXAMPLE 309, 1,1,1-Trifluoropropan-2-yl 4-fluoro-2-((pyrazolo[1,5-a]pyrimidine-3-carboxamido)methyl)benzofuran-7-carboxylate] | – | – | 7.2 µM | 6.1 µM
12 | CC(OC(=O)c1ccc(F)c2cc(CNC(=O)c3cnn4cccnc34)oc12)C(F)(F)F (single isomer, unassigned) [EXAMPLE 310, 1,1,1-Trifluoropropan-2-yl 4-fluoro-2-((pyrazolo[1,5-a]pyrimidine-3-carboxamido)methyl)benzofuran-7-carboxylate] | – | – | 56 µM | 37 µM
